Data set [1] is described as follows: Blood levels of test compounds in ZDF fa/fa rats. To be noted: 30 mg/kg per os twice; for oral bioavailability (blood levels at 30 and 60 min after the glucose load): male ZDF fa/fa rats; for concentration at 30 min / concentration at 60 min: male, rat, whole blood, oral; for concentration at 30 min / concentration at 60 min / Average Blood levels: ZDF fa/fa rats. Format: in vivo, rat. The method, then:
The ability of example compounds of the present invention to improve glucose metabolism was tested in 12-13 week old male ZDF fa/fa rats. The test animals (10-15 mmol/L fasting glucose level) were dosed twice at 30 mg/kg and the glucose challenge was given at time 0. […] Most of these blood levels were below the EC50 values determined in cellular assays.
12-13 weeks old male ZDF fa/fa rats were used to study the effect of example compounds on oral glucose tolerance. […] Body weight was recorded three times per week. Test compounds were dissolve in a formulation of 10% DMSO, 5% Tween, 5% Span 20, 30% PEG 400 and 50% water (v/v) to provide final solutions at 5 mg/mL concentration. Each experimental group contained 7 animals. After an 16 h overnight fast the test compounds were administered at 30 mg/kg per os twice (at −270 min and −30 min) before the oral glucose tolerance test was commenced (2 g glucose/kg per os as a 40% solution introduced via feeding tube). A control group was dosed in a similar manner with the vehicle only. Blood sampling for blood glucose measurement (20 μL blood) was performed at −270, 0, 15, 30, 60, 90, 120 and 180 min. Mixed venous blood was collected from the tail vein into 20-μL glass capillaries, which were placed in a standard tube filled with 1 mL solution for hemolysis. Glucose levels were measured using the glucose oxidase procedure (Super G Glukosemessgeraet; Dr Mueller Geraetebau, Freital, Germany). In addition, 50 μL blood samples were taken at 30 and 60 min after the glucose dose, placed in heparinized tubes, which were then frozen immediately in liquid nitrogen. The bioanalytical method used employed isocratic elution liquid chromatography—tandem mass spectrometry in electrospray positive ion multiple reaction monitoring mode.

A further data set deals with glycogen synthase. Kind of data set: Glycogen synthase activation in rat myotubes. Format: cell-based. Conditions: for EC50: Myotube; for Max FI (% to LiCl): maximum fold induction normalised to 40 mM LiCl. As to the method: Rat myotubes were differentiated from L6.G8.C5 myoblasts, which were grown in DMEM, 10% FCS and antibiotics until confluent. The medium was then removed, cells washed with PBS and differentiation medium containing minimal essential media eagles (alpha modified) supplemented with 2% FCS and antibiotics. The cells were cultured for 3-4 days until >90% of cells had formed multinucleated myotubes. The differentiated cells were then used for determination of glycogen synthase activation after treatment with GSK3 inhibitor example compounds.
HEK293 cells, mouse adipocytes or rat myotubes were treated in 10-cm Petri dishes with different concentrations of GSK3 inhibitor example compounds for 90 minutes. At the end of the treatment period the cells were washed and scraped in ice cold PBS buffer supplemented with 20 mM NaF. The cells were pelleted by centrifugation and lysed in 300 μL buffer (50 mM.HEPES pH 7.5, 10 mM EDTA, 100 mM NaF, 5 mM DTT, protease inhibitor cocktail (Sigma)). After incubation for 30 min on ice the samples were cleared by centrifugation. The activity of glycogen synthase was determined in the soluble fraction at two different concentrations of […]—low (0.1 mM) and high (10 mM). The reaction was carried out for 30 min (buffer: 50 mM Tris pH 7.8, 20 mM EDTA, 25 mM NaF, 5 mM DTT). The reaction mixture (total volume of 90 μL) contained 1% glycogen, 0.3 mM UDP-glucose and 0.06 μCi ^14C-UDP-glucose. Reaction was stopped by transfer of 70 μL to a GFC 96-well filter plate, containing 140 μL 100% ethanol and the glycogen was allowed to precipitate for 1 h at 4° C. The wells were washed 2 times with 200 μL 66% ethanol and than allowed to dry. Subsequently, 100 μL of scintillation liquid was added, and plates were sealed and counted in a Packard Topcounter. Glycogen synthase activation was calculated as the ratio between the incorporation of labelled ^14C-UDP-glucose in glycogen at low and high concentration of […] (fractional velocity).
The ability of GSK3 inhibitors to activate glycogen synthase was determined in HEK293 cells, mouse adipocytes and rat myotubed. The compounds tested activated glycogen synthase in all three cellular systems with EC50 values in the sub-micromolar to low micromolar concentration range. Most of them exceeded the stimulation induced by 40 mM LiCl (the highest compound concentration used in the assay was 20 μM).

The target of another data set is CDK1/cyclin B (Homo sapiens, UniProt P06493). The experiment in a line: Kinase assay CDK1/cyclin B (radioactive phosphate incorporation). Format: biochemical. To be noted: Ki calculated (Cheng-Prusoff) from experimentally determined IC50 and Km,ATP; read-out: Kinase Inhibition Ki CDK1 - cyclin B. In outline: (§1)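 Radiometric assays measured transfer of radioactive phosphate from ATP onto polypeptide substrates, using 2-4 μg recombinant active enzyme in buffer typically containing 25 mM β-glycerophosphate, 20 mM MOPS, 5 mM EGTA, 1 mM DTT and 1 mM Na3VO3 at pH 7.4. Reactions were stopped on ice, filtered on P81 or GF/C plates and washed with orthophosphoric acid. Incorporated radioactivity was scintillation-counted.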
Sequence of CDK1/cyclin B (P06493 whole entry, species assumed): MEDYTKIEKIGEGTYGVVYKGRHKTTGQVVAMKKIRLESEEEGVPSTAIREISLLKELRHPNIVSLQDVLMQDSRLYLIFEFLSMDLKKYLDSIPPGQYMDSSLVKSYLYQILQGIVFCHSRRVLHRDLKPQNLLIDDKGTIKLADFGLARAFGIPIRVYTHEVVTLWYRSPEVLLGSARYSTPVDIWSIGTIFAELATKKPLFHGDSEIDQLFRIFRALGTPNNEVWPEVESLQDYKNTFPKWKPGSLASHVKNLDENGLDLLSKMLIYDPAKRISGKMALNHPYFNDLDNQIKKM
Sequence of CDK1/cyclin B (P14635 whole entry partner, species assumed): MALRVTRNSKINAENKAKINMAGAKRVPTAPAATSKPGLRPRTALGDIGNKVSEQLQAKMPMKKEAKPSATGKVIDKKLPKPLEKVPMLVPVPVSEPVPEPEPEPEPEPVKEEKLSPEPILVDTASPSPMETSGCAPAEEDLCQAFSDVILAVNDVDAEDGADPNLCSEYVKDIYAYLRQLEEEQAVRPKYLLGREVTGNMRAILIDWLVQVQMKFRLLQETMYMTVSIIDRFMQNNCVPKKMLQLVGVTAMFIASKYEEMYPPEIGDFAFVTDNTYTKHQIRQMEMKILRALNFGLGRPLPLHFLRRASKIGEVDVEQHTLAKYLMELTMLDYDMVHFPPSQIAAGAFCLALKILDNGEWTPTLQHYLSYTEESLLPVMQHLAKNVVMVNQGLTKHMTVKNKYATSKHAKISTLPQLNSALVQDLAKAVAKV

The next data set has as its target T1, aurora A (Homo sapiens, UniProt O14965).
T1 sequence (O14965 1-403): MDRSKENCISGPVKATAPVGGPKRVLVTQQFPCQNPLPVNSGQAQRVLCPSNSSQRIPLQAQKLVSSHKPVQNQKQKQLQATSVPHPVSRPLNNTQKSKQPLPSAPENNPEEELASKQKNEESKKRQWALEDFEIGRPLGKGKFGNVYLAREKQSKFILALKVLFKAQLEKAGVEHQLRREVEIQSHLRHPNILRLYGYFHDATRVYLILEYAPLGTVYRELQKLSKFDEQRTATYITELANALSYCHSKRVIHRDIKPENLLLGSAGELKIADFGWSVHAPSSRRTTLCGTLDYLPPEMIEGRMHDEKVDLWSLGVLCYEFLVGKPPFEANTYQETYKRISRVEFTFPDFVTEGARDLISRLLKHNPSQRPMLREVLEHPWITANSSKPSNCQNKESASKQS
The experiment in a line: Kinase assay aurora A. Format: biochemical. To be noted: Ki calculated (Cheng-Prusoff) from experimentally determined IC50 and Km,ATP; read-out: Kinase Inhibition Ki Aurora A. In outline: as §1

The target in another data set is CDK2/cyclin E (Homo sapiens, UniProt P24941). Kind of data set: Kinase assay CDK2/cyclin E. Format: biochemical. To be noted: Ki calculated (Cheng-Prusoff) from experimentally determined IC50 and Km,ATP; read-out: Kinase Inhibition Ki CDK2 - cyclin E. In outline:
as §1

`Cc1c(-c2ccnc(Nc3cc(Br)cc(C(F)(F)F)c3)n2)sc(=O)n1C` [Compound 68, 5-[2-(3-Bromo-5-trifluoromethyl-phenylamino)-pyrimidin-4-yl]-3,4-dimethyl-3H-thiazol-2-one]: the “oral bioavailability (blood levels at 30 and 60 min after the glucose load)” value (from here on “oral bioavailability”) in data set [1] is “some oral bioavailability”. This molecule also yielded a concentration at 30 min in data set [1] (time 30 min) of 115 ng/mL. In addition, the concentration at 60 min in data set [1] (time 60 min) came to 70.1 ng/mL.
`CC(=O)Nc1cc(Nc2nccc(-c3sc(=O)n(C)c3C)n2)cc(C(F)(F)F)c1` [Compound 64, N-{3-[4-(3,4-Dimethyl-2-oxo-2,3-dihydro-thiazol-5-yl)-pyrimidin-2-ylamino]-5-trifluoromethyl-phenyl}-acetamide] returned an EC50 with glycogen synthase of 1240 ± 610 nM. In the data set on glycogen synthase, the “Max FI (% to LiCl)” value is 152 % to LiCl. In addition, the Ki was 870 nM at CDK1/cyclin B and 170 nM at aurora A. The “oral bioavailability” value in data set [1] was “some oral bioavailability”. For the same molecule, in data set [1] (time 30 min), the concentration at 30 min amounted to 248 ng/mL. The molecule further showed a concentration at 60 min in data set [1] (time 60 min) of 268 ng/mL.
The molecule `CCNS(=O)(=O)c1cccc(Nc2nccc(-c3sc(=O)n(C)c3C)n2)c1` [Compound 62, 3-[4-(3,4-Dimethyl-2-oxo-2,3-dihydro-thiazol-5-yl)-pyrimidin-2-ylamino]-N-ethyl-benzenesulfonamide] returned an EC50 with glycogen synthase of 1610 ± 199 nM. The “Max FI (% to LiCl)” value with glycogen synthase is recorded as 130 % to LiCl. Also, the figures for the Ki on CDK2/cyclin E, on CDK1/cyclin B and on aurora A were 350 nM, 430 nM and 410 nM, respectively. This molecule also returned a concentration at 30 min in data set [1] (time 30 min) of 27.6 ng/mL. The molecule also showed a concentration at 60 min in data set [1] (time 60 min) of 29.7 ng/mL.
As for `CNc1cc(Nc2nccc(-c3sc(=O)n(C)c3C)n2)cc(C(F)(F)F)c1` [Compound 76, 3,4-Dimethyl-5-[2-(3-methylamino-5-trifluoromethyl-phenylamino)-pyrimidin-4-yl]-3H-thiazol-2-one], the Ki on CDK2/cyclin E was 89 nM; on aurora A it was 150 nM. Further, the “Average Blood levels” value is reported as 43.0 ng/mL in data set [1] (time 30 min) and 48.1 ng/mL in data set [1] (time 60 min).
In the case of `Cc1c(-c2ccnc(Nc3cccc(S(=O)(=O)NCCO)c3)n2)sc(=O)n1C` [Compound 75, 3-[4-(3,4-Dimethyl-2-oxo-2,3-dihydro-thiazol-5-yl)-pyrimidin-2-ylamino]-N-(2-hydroxy-ethyl)-benzenesulfonamide], a half-maximal response in the data set on glycogen synthase (EC50) required 8490 ± 2480 nM. Further, the “Max FI (% to LiCl)” value in the data set on glycogen synthase is reported as 157 % to LiCl. The inhibitory constant (Ki) on CDK2/cyclin E was 380 nM; at CDK1/cyclin B it was 620 nM; at aurora A, 250 nM.
`COCCNS(=O)(=O)c1cccc(Nc2nccc(-c3sc(=O)n(C)c3C)n2)c1` [Compound 67, 3-[4-(3,4-Dimethyl-2-oxo-2,3-dihydro-thiazol-5-yl)-pyrimidin-2-ylamino]-N-(2-methoxy-ethyl)-benzenesulfonamide]: in the data set on glycogen synthase, a half-maximal effect (EC50) was put at 10500 ± 990 nM and the “Max FI (% to LiCl)” value is 112 % to LiCl. The Ki on aurora A was 390 nM. For the same molecule, in data set [1], the “oral bioavailability” value is “some oral bioavailability”. The molecule also came in with a concentration at 30 min in data set [1] (time 30 min) of 350 ng/mL. Further, the concentration at 60 min in data set [1] (time 60 min) was found to be 271 ng/mL.

The term EC50 denotes the concentration at which the effect is half-maximal. By Ki is commonly meant the equilibrium dissociation constant of an inhibitor or competing ligand from its target.
